Patent US8367724B2, “Ester compound and use thereof” (Sumitomo Chemical Company, Limited, priority 2007, dated 2013)

Assays:
[1] = test system: common mosquito (Culex pipens pallens) females; test: Mortality of common mosquito females, oil solution sprayed in a chamber (Test Example 2); assay type: in vivo; details: 0.7 ml of 0.00625% oil solution sprayed in 70 cm cubic chamber; ten females; recovered after ten minutes; dead counted after 24 hours; 2 repetition
Experimental: Each 0.00625 parts of the present compounds (1) to (3) produced in the above production Examples was dissolved in 10 parts of dichloromethane, and the solution was mixed with 89.99375 parts of deodorized kerosene to prepare a 0.00625% oil solution.
Ten common mosquito (Culex pipens pallens) females were released in a cubic chamber having each side of 70 cm, and 0.7 ml of the 0.00625% oil solution of the present compound prepared above was sprayed into the chamber through a small window on a side of the chamber using a spraying gun at a pressure of 8.8×10^4 Pa. After ten minutes, common mosquito females were recovered in a clean cup (bottom diameter 8.2 cm) with a cotton wool containing a 0.5% aqueous sugar, and allowed to stand until the next day. After 24 hours, the number of dead mosquitoes was counted, and a mortality was calculated (2 repetition).
In addition, the same as above test was performed using, in place of present compounds (1) to (3), 4-methoxymethyl-2,3,5,6-tetrafluorobenzyl (1R)-trans-3-(2-cyano-1-propenyl)-2,2-dimethylcyclopropanecarboxylate (ratio of isomers regarding double bond: Z/E=about 2/1; compound described in U.S. Pat. No. 6,908,945B2; hereinafter refereed to as Comparative Compound (4)) as a control.

[2] = test system: Adult houseflies; test: Knock-down of adult houseflies, oil solution sprayed in a chamber (Test Example 1); assay type: in vivo, housefly; details: 0.7 ml of 0.025% oil solution sprayed in 70 cm cubic chamber; 10 adult houseflies; counted two minutes after spraying; 2 repetitions
Experimental: Each 0.025 part of the present compounds (1) to (3) produced in the above Production Examples was dissolved in 10 parts of dichloromethane, and the solution was mixed with 89.975 parts of deodorized kerosene to prepare a 0.025% oil solution.
Adult houseflies (5 males and 5 females, total 10) were released in a cubic chamber having each side of 70 cm, and 0.7 ml of the 0.025% oil solution of the present compound prepared above was sprayed into the chamber through a small window on a side of the chamber using a spraying gun at a pressure of 8.8×10^4 Pa. Two minutes after spraying, the number of knocked-down houseflies was counted (2 repetitions).
In addition, the same as above test was performed by using, in place of the present compounds (1) to (3), 4-methyl-2,3,5,6-tetrafluorobenzyl (1R)-trans-3-(2-methyl-1-propenyl)-2,2-dimethylcyclopropanecarboxylate represented by the formula: […]

SMILES | Mortality (%) [1] [%] | Number of knock-down houseflies [2]
CC(C#N)=C[C@@H]1[C@@H](C(=O)OCc2c(F)c(F)c(C)c(F)c2F)C1(C)C (racemic) [Present compound (1), 4-methyl-2,3,5,6-tetrafluorobenzyl (1R)-trans-3-(2-cyano-1-propenyl)-2,2-dimethylcyclopropanecarboxylate] | 95 | 10
COc1c(F)c(F)c(COC(=O)[C@@H]2[C@@H](C=C(C)C#N)C2(C)C)c(F)c1F (racemic) [Present compound (2), 4-methoxy-2,3,5,6-tetrafluorobenzyl (1R) trans-3-(2-cyano-1-propenyl)-2,2-dimethylcyclopropanecarboxylate] | 100 | 10
C=CCc1c(F)c(F)c(COC(=O)[C@@H]2[C@@H](C=C(C)C#N)C2(C)C)c(F)c1F (racemic) [Present compound (3), 4-allyl-2,3,5,6-tetrafluorobenzyl (1R)-trans-3-(2-cyano-1-propenyl)-2,2-dimethylcyclopropanecarboxylate] | 70 | 9
CC(C)=C[C@@H]1[C@@H](C(=O)OCc2c(F)c(F)c(C)c(F)c2F)C1(C)C [Comparative compound (1), 4-methyl-2,3,5,6-tetrafluorobenzyl (1R)-trans-3-(2-methyl-1-propenyl)-2,2-dimethylcyclopropanecarboxylate, reference compound] |  | 0
COc1c(F)c(F)c(COC(=O)[C@@H]2[C@@H](C=C(C)C)C2(C)C)c(F)c1F [Comparative compound (2), 4-methoxy-2,3,5,6-tetrafluorobenzyl (1R)-trans-3-(2-methyl-1-propenyl)-2,2-dimethylcyclopropanecarboxylate, reference compound] |  | 0
C=CCc1c(F)c(F)c(COC(=O)[C@@H]2[C@@H](C=C(C)C)C2(C)C)c(F)c1F [Comparative compound (3), 4-allyl-2,3,5,6-tetrafluorobenzyl (1R)-trans-3-(2-methyl-1-propenyl)-2,2-dimethylcyclopropanecarboxylate, reference compound] |  | 0
COCc1c(F)c(F)c(COC(=O)[C@@H]2[C@@H](C=C(C)C#N)C2(C)C)c(F)c1F [Comparative compound (4), 4-methoxymethyl-2,3,5,6-tetrafluorobenzyl (1R)-trans-3-(2-cyano-1-propenyl)-2,2-dimethylcyclopropanecarboxylate, reference compound] | 16 | 
